The structures appear in SMILES notation.

This experiment concerns the target WDR5 (Homo sapiens, UniProt P61964). In words: Screening of putative WDR5 degraders by Western blot in MV4;11 and/or MIAPACA2 cells. Format: cell-based. Details: After WDR5 degrader treatment, cells were collected and lysed; endogenous in cells; host or cells: MV4;11 and/or MIAPACA2. As to conditions: summary of screening, FIGS. 6-10. In short, it runs like this: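 MV4;11 (1×10^6/well) or MIAPACA2 (1×10^5/well) cells treated 18 h with compound at paired doses between 0.1 and 10 μM, DMSO as control. Total lysates immunoblotted for WDR5 with vinculin, tubulin or GAPDH loading controls; fluorescent secondary detection.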
As to `Cc1ncsc1-c1ccc(CNC(=O)[C@@H]2C[C@@H](O)CN2C(=O)[C@@H](NC(=O)CCCCCCC(=O)NCCN2CCN(Cc3ccc(F)c(-c4ccc(N5C[C@@H](C)N(C)[C@@H](C)C5)c(NC(=O)c5c[nH]c(=O)cc5C(F)(F)F)c4)c3)CC2)C(C)(C)C)cc1` [XF078-14, N^1-(2-(4-((6-fluoro-3′-(6-oxo-4-(trifluoromethyl)-1,6-dihydropyridine-3-carboxamido)-4′-((3S,5R)-3,4,5-trimethylpiperazin-1-yl)-[1,1′-biphenyl]-3-yl)methyl)piperazin-1-yl)ethyl)-N^8-((S)-1-((2S,4R)-4-hydroxy-2-((4-(4-methylthiazol-5-yl)benzyl)carbamoyl)pyrrolidin-1-yl)-3,3-dimethyl-1-oxobutan-2-yl)octanediamide], the “effective degradation of WDR5 in MV4;11 and/or MIAPACA2 cells” value is “able to effectively degrade WDR5”. To `Cc1ncsc1-c1ccc(CNC(=O)[C@@H]2C[C@@H](O)CN2C(=O)[C@@H](NC(=O)CCCCCCCCCC(=O)N2CCN(c3ccc(-c4cc(NC(=O)c5c[nH]c(=O)cc5C(F)(F)F)c(N5C[C@@H](C)N(C)[C@@H](C)C5)cc4F)cn3)CC2)C(C)(C)C)cc1` [XF067-133, N-(4-fluoro-5-(6-(4-(11-(((S)-1-((2S,4R)-4-hydroxy-2-((4-(4-methylthiazol-5-yl)benzyl)carbamoyl)pyrrolidin-1-yl)-3,3-dimethyl-1-oxobutan-2-yl)amino)-11-oxoundecanoyl)piperazin-1-yl)pyridin-3-yl)-2-((3S,5R)-3,4,5-trimethylpiperazin-1-yl)phenyl)-6-oxo-4-(trifluoromethyl)-1,6-dihydropyridine-3-carboxamide] belongs “able to effectively degrade WDR5”; to `Cc1ncsc1-c1ccc(CNC(=O)[C@@H]2C[C@@H](O)CN2C(=O)[C@@H](NC(=O)CCCCCCC(=O)N2CC=C(c3cc(NC(=O)c4c[nH]c(=O)cc4C(F)(F)F)c(N4C[C@@H](C)N(C)[C@@H](C)C4)cc3F)CC2)C(C)(C)C)cc1` [XF078-43, N-(4-fluoro-5-(1-(8-(((S)-1-((2S,4R)-4-hydroxy-2-((4-(4-methylthiazol-5-yl)benzyl)carbamoyl)pyrrolidin-1-yl)-3,3-dimethyl-1-oxobutan-2-yl)amino)-8-oxooctanoyl)-1,2,3,6-tetrahydropyridin-4-yl)-2-((3S,5R)-3,4,5-trimethylpiperazin-1-yl)phenyl)-6-oxo-4-(trifluoromethyl)-1,6-dihydropyridine-3-carboxamide], “able to effectively degrade WDR5”; to `C[C@@H]1CN(c2cc(F)c(C3=CCN(c4ncc(CN5CCN(C(=O)CNc6cccc7c6C(=O)N(C6CCC(=O)NC6=O)C7=O)CC5)cn4)CC3)cc2NC(=O)c2c[nH]c(=O)cc2C(F)(F)F)C[C@H](C)N1C` (stereo partly drawn) [XF078-149, N-(5-(1-(5-((4-((2-(2,6-dioxopiperidin-3-yl)-1,3-dioxoisoindolin-4-yl)glycyl)piperazin-1-yl)methyl)pyrimidin-2-yl)-1,2,3,6-tetrahydropyridin-4-yl)-4-fluoro-2-((3S,5R)-3,4,5-trimethylpiperazin-1-yl)phenyl)-6-oxo-4-(trifluoromethyl)-1,6-dihydropyridine-3-carboxamide], “able to effectively degrade WDR5”. On to `Cc1ncsc1-c1ccc(CNC(=O)[C@@H]2C[C@@H](O)CN2C(=O)[C@@H](NC(=O)COCCOCCNC(=O)CCC(=O)N2CCN(c3ccc(-c4cc(NC(=O)c5c[nH]c(=O)cc5C(F)(F)F)c(N5C[C@@H](C)N(C)[C@@H](C)C5)cc4F)cn3)CC2)C(C)(C)C)cc1` [XF067-142, N-(4-fluoro-5-(6-(4-((S)-3-((2S,4R)-4-hydroxy-2-((4-(4-methylthiazol-5-yl)benzyl)carbamoyl)pyrrolidine-1-carbonyl)-2,2-dimethyl-5,14-dioxo-7,10-dioxa-4,13-diazaheptadecan-17-oyl)piperazin-1-yl)pyridin-3-yl)-2-((3S,5R)-3,4,5-trimethylpiperazin-1-yl)phenyl)-6-oxo-4-(trifluoromethyl)-1,6-dihydropyridine-3-carboxamide], for which the “effective degradation of WDR5 in MV4;11 and/or MIAPACA2 cells” value was “able to effectively degrade WDR5”.

(Values after patent publication US12110295B2, “WD40 repeat domain protein 5 (WDR5) degradation/disruption compounds and methods of use” (Icahn School of Medicine at Mount Sinai, priority 2018, dated 2024).)
